Measurements as given in the CheMixHub ionic liquid set.
± gives the uncertainty stated by the source.

Experiment: xn = mol fraction of the nth substance listed

## CS(=O)(=O)[O-].C[N+](C)(CCO)CCO + CCCO
298.15 K, 101 kPa, x1 = 0.0999
  viscosity: 4.97 ± 0.3 mPa·s
298.15 K, 101 kPa, x1 = 0.1996
  viscosity: 11.64 ± 0.71 mPa·s
298.15 K, 101 kPa, x1 = 0.2999
  viscosity: 25.5 ± 1.5 mPa·s
298.15 K, 101 kPa, x1 = 0.3987
  viscosity: 50.9 ± 3.1 mPa·s
298.15 K, 101 kPa, x1 = 0.498
  viscosity: 97.5 ± 6.3 mPa·s
298.15 K, 101 kPa, x1 = 0.5975
  viscosity: 196 ± 14 mPa·s
298.15 K, 101 kPa, x1 = 0.6972
  viscosity: 337 ± 28 mPa·s
298.15 K, 101 kPa, x1 = 0.7982
  viscosity: 576 ± 56 mPa·s
298.15 K, 101 kPa, x1 = 0.8978
  viscosity: 960 ± 100 mPa·s
298.15 K, 101 kPa, x1 = 1
  viscosity: 1495 ± 180 mPa·s
303.15 K, 101 kPa, x1 = 0.0999
  viscosity: 4.34 ± 0.26 mPa·s
303.15 K, 101 kPa, x1 = 0.1996
  viscosity: 9.88 ± 0.6 mPa·s
303.15 K, 101 kPa, x1 = 0.2999
  viscosity: 20.9 ± 1.3 mPa·s
303.15 K, 101 kPa, x1 = 0.3987
  viscosity: 40.6 ± 2.5 mPa·s
303.15 K, 101 kPa, x1 = 0.498
  viscosity: 75.5 ± 4.7 mPa·s
303.15 K, 101 kPa, x1 = 0.5975
  viscosity: 149 ± 10 mPa·s
303.15 K, 101 kPa, x1 = 0.6972
  viscosity: 248 ± 19 mPa·s
303.15 K, 101 kPa, x1 = 0.7982
  viscosity: 414 ± 37 mPa·s
303.15 K, 101 kPa, x1 = 0.8978
  viscosity: 676 ± 68 mPa·s
303.15 K, 101 kPa, x1 = 1
  viscosity: 1021 ± 110 mPa·s
308.15 K, 101 kPa, x1 = 0.0999
  viscosity: 3.8 ± 0.23 mPa·s
308.15 K, 101 kPa, x1 = 0.1996
  viscosity: 8.45 ± 0.52 mPa·s
308.15 K, 101 kPa, x1 = 0.2999
  viscosity: 17.4 ± 1.1 mPa·s
308.15 K, 101 kPa, x1 = 0.3987
  viscosity: 32.9 ± 2 mPa·s
308.15 K, 101 kPa, x1 = 0.498
  viscosity: 59.6 ± 3.6 mPa·s
308.15 K, 101 kPa, x1 = 0.5975
  viscosity: 114.8 ± 7.5 mPa·s
308.15 K, 101 kPa, x1 = 0.6972
  viscosity: 187 ± 14 mPa·s
308.15 K, 101 kPa, x1 = 0.7982
  viscosity: 304 ± 25 mPa·s
308.15 K, 101 kPa, x1 = 0.8978
  viscosity: 484 ± 45 mPa·s
308.15 K, 101 kPa, x1 = 1
  viscosity: 716 ± 73 mPa·s
313.15 K, 101 kPa, x1 = 0.0999
  viscosity: 3.36 ± 0.2 mPa·s
313.15 K, 101 kPa, x1 = 0.1996
  viscosity: 7.29 ± 0.44 mPa·s
313.15 K, 101 kPa, x1 = 0.2999
  viscosity: 14.66 ± 0.89 mPa·s
313.15 K, 101 kPa, x1 = 0.3987
  viscosity: 27 ± 1.6 mPa·s
313.15 K, 101 kPa, x1 = 0.498
  viscosity: 47.7 ± 2.9 mPa·s
313.15 K, 101 kPa, x1 = 0.5975
  viscosity: 79.8 ± 5 mPa·s
313.15 K, 101 kPa, x1 = 0.6972
  viscosity: 142.8 ± 9.8 mPa·s
313.15 K, 101 kPa, x1 = 0.7982
  viscosity: 228 ± 17 mPa·s
313.15 K, 101 kPa, x1 = 0.8978
  viscosity: 355 ± 30 mPa·s
313.15 K, 101 kPa, x1 = 1
  viscosity: 513 ± 48 mPa·s
318.15 K, 101 kPa, x1 = 0.0999
  viscosity: 2.98 ± 0.18 mPa·s
318.15 K, 101 kPa, x1 = 0.1996
  viscosity: 6.35 ± 0.39 mPa·s
318.15 K, 101 kPa, x1 = 0.2999
  viscosity: 12.49 ± 0.76 mPa·s
318.15 K, 101 kPa, x1 = 0.3987
  viscosity: 22.5 ± 1.4 mPa·s
318.15 K, 101 kPa, x1 = 0.498
  viscosity: 38.8 ± 2.4 mPa·s
318.15 K, 101 kPa, x1 = 0.5975
  viscosity: 63.7 ± 3.9 mPa·s
318.15 K, 101 kPa, x1 = 0.6972
  viscosity: 111.4 ± 7.3 mPa·s
318.15 K, 101 kPa, x1 = 0.7982
  viscosity: 174 ± 13 mPa·s
318.15 K, 101 kPa, x1 = 0.8978
  viscosity: 267 ± 21 mPa·s
318.15 K, 101 kPa, x1 = 1
  viscosity: 378 ± 33 mPa·s
323.15 K, 101 kPa, x1 = 0.0999
  viscosity: 2.66 ± 0.16 mPa·s
323.15 K, 101 kPa, x1 = 0.1996
  viscosity: 5.56 ± 0.34 mPa·s
323.15 K, 101 kPa, x1 = 0.2999
  viscosity: 10.92 ± 0.66 mPa·s
323.15 K, 101 kPa, x1 = 0.3987
  viscosity: 18.9 ± 1.1 mPa·s
323.15 K, 101 kPa, x1 = 0.498
  viscosity: 32 ± 1.9 mPa·s
323.15 K, 101 kPa, x1 = 0.5975
  viscosity: 51.5 ± 3.1 mPa·s
323.15 K, 101 kPa, x1 = 0.6972
  viscosity: 79.8 ± 5 mPa·s
323.15 K, 101 kPa, x1 = 0.7982
  viscosity: 135.8 ± 9.2 mPa·s
323.15 K, 101 kPa, x1 = 0.8978
  viscosity: 203 ± 15 mPa·s
323.15 K, 101 kPa, x1 = 1
  viscosity: 282 ± 23 mPa·s

## COP(=O)([O-])OC.C[N+]1(CCO)CCCC1 + CCO
293.15 K, 100 kPa, x1 = 0.1077
  viscosity: 4.74 ± 0.29 mPa·s
293.15 K, 100 kPa, x1 = 0.2079
  viscosity: 12.31 ± 0.74 mPa·s
293.15 K, 100 kPa, x1 = 0.3084
  viscosity: 32 ± 1.9 mPa·s
293.15 K, 100 kPa, x1 = 0.4033
  viscosity: 55.9 ± 3.4 mPa·s
293.15 K, 100 kPa, x1 = 0.5077
  viscosity: 123 ± 7.7 mPa·s
293.15 K, 100 kPa, x1 = 0.7053
  viscosity: 402 ± 29 mPa·s
298.15 K, 100 kPa, x1 = 0.7053
  viscosity: 295 ± 20 mPa·s
298.15 K, 100 kPa, x1 = 0.8055
  viscosity: 478 ± 35 mPa·s
303.15 K, 100 kPa, x1 = 0.0561
  viscosity: 2.02 ± 0.12 mPa·s
303.15 K, 100 kPa, x1 = 0.2079
  viscosity: 9.66 ± 0.58 mPa·s
303.15 K, 100 kPa, x1 = 0.3084
  viscosity: 23.7 ± 1.4 mPa·s
303.15 K, 100 kPa, x1 = 0.5077
  viscosity: 78.2 ± 4.8 mPa·s
308.15 K, 100 kPa, x1 = 0.0561
  viscosity: 1.73 ± 0.1 mPa·s
308.15 K, 100 kPa, x1 = 0.1077
  viscosity: 3.54 ± 0.21 mPa·s
308.15 K, 100 kPa, x1 = 0.1523
  viscosity: 5.76 ± 0.35 mPa·s
308.15 K, 100 kPa, x1 = 0.3084
  viscosity: 21.1 ± 1.3 mPa·s
313.15 K, 100 kPa, x1 = 0.9053
  viscosity: 277 ± 19 mPa·s
318.15 K, 100 kPa, x1 = 0.2079
  viscosity: 7.02 ± 0.42 mPa·s
318.15 K, 100 kPa, x1 = 0.2537
  viscosity: 10.45 ± 0.63 mPa·s
318.15 K, 100 kPa, x1 = 0.4033
  viscosity: 26.5 ± 1.6 mPa·s
318.15 K, 100 kPa, x1 = 0.5077
  viscosity: 44.7 ± 2.7 mPa·s
318.15 K, 100 kPa, x1 = 1
  viscosity: 273 ± 19 mPa·s
323.15 K, 100 kPa, x1 = 0.5077
  viscosity: 38.1 ± 2.3 mPa·s
323.15 K, 100 kPa, x1 = 0.6042
  viscosity: 60 ± 3.6 mPa·s
328.15 K, 100 kPa, x1 = 0.2079
  viscosity: 5.83 ± 0.35 mPa·s
328.15 K, 100 kPa, x1 = 0.3084
  viscosity: 12.98 ± 0.78 mPa·s
328.15 K, 100 kPa, x1 = 0.6042
  viscosity: 50.4 ± 3 mPa·s
333.15 K, 100 kPa, x1 = 0.4033
  viscosity: 17.9 ± 1.1 mPa·s
333.15 K, 100 kPa, x1 = 0.7053
  viscosity: 54.1 ± 3.3 mPa·s
338.15 K, 100 kPa, x1 = 0.4033
  viscosity: 16.24 ± 0.98 mPa·s
338.15 K, 100 kPa, x1 = 0.5077
  viscosity: 23.8 ± 1.4 mPa·s
338.15 K, 100 kPa, x1 = 0.6042
  viscosity: 35.9 ± 2.2 mPa·s
338.15 K, 100 kPa, x1 = 0.8055
  viscosity: 60.9 ± 3.7 mPa·s
